Laboratory results: publication PMC11542721, “Molecular properties, including chameleonicity, as essential tools for designing the next generation of oral beyond rule of five drugs” (ADMET & DMPK, 2024)
Where two headings read alike, the source gives them in different places.

How the values were obtained:
[1] = Ionization behaviour from variation of log k'80 PLRP-S at three pHs; assay type: physicochemical; conditions: for A/B: acid or base profile: log k'80 PLRP-S at acidic, neutral and basic pH
Excerpt: The ionization constant (usually reported as pKa) is an important parameter for evaluating ionizable molecules since it may have a decisive impact on the in vitro ADME properties. […] Since the experimental determination of pKa is not a trivial assay and a certain degree of expertise is required, Caron’s group observed that the ionization behaviour (not the pKa) of a molecule can be obtained by monitoring the variation of the log of the capacity factor in the PLRP-S system (log k'80 PLRP-S) vs. the pH [15]. […] In many cases, ionization is completely overlooked, and in some instances, it is predicted using standard calculators not designed for large, flexible molecules.
Then, we focused on experimental descriptors. We first explored the ionization behavior of the three PROTACS by monitoring the variation in log k'80 PLRP-s at three pHs.

[2] = IAM chromatography (log kw^IAM and Δ log kw^IAM); assay type: physicochemical; conditions: for log kw^IAM: IAM column, extrapolated to 0% organic solvent; for Δ log kw^IAM: polarity descriptor
Excerpt: Furthermore, RP-HPLC methods generate biomimetic environments. For example, immobilized artificial membrane (IAM) chromatography, first introduced by Charles Pidgeon and his colleagues, is used to simulate biological cell membranes. IAM columns consist of a monolayer of phosphatidylcholine covalently bound to an inert silica support . The reference descriptor is the logarithm of the capacity factor at 0% organic solvent (extrapolated value), named log kW^IAM. In the IAM system, the retention of charged molecules also depends on the electrostatic interactions with the phospholipid heads.
Without entering the method details that can be retrieved in the literature, Δ log kw^IAM represents the polarity of the analyte.

[3] = Chamelogk chromatographic chameleonicity descriptor (PLRP-S); assay type: physicochemical; conditions: Exp. minus Ext. log k' 100 PLRP-S
Protocol: Therefore, we recently implemented a chromatographic descriptor, Chamelogk, that measures chameleonicity in a unique and dynamic system. To obtain Chamelogk (Figure 5B), the first step involves the experimental determination of the capacity factor (log k' PLRP-S) at 50, 60, and 70 % of acetonitrile. Then, the linear correlation between the log k' PLRP-S and the percentage of MeCN is determined. The equation derived from the linear correlation is then applied to extrapolate the capacity factor at 100 % (called Ext. log k’ 100 PLRP-S). Then, the experimental value at 100 % MeCN is measured (named Exp. log k’ 100 PLRP-S) and the difference with the extrapolated value is calculated. Thus, Chamelogk is defined as the capacity factor difference (Δ log k') between the experimental log k' measured at 100 % MeCN (Exp. log k' 100) and the extrapolated value (Ext. log k’ 100), as shown by Equation 2 and Figure 5B.

[4] = cited from earlier work
[5] = tested on: enzalutamide-insensitive tumours; design: method as in PMID 36508999; conditions: cited from earlier work
[6] = preclinical models; cited from earlier work
[7] = BRlogD chromatographic lipophilicity (octanol/water surrogate)
ER (estrogen receptor) = tested on: ER (estrogen receptor); design: method as in doi:10.1016/j.annonc.2023.09.567; conditions: tumor cell lines, in vitro; cited from earlier work
advanced breast cancer = tested on: advanced breast cancer; design: method as in doi:10.1016/j.annonc.2023.09.567; conditions: phase I and II, cited from earlier work
[8] = mouse; cited from earlier work
[9] = tested on: Bcl-xL (B-cell lymphoma extra-large); design: method as in PMID 32677976; conditions: cancer cells, preclinical studies; cited from earlier work
[10] = RP-HPLC, surrogate of octanol/water

SMILES | A/B: acid or base profile [1] | Ionization state at pH 7 [1] | log kw^IAM [2] | Δ log kw^IAM [2] | Chamelogk [3] | chromatographic logD [7] | chromatographic logD [7, 10] | Absorption [4] | Tumour growth in vivo [5] | Oral bioavailability F [6] [%] | ER degradation (ER (estrogen receptor)) | Clinical activity (advanced breast cancer; advanced breast cancer patients) | Tolerability (advanced breast cancer; all doses orally administered) | Oral bioavailability F [8] [%] | Degradation of Bcl-xL [9]
O=C1CC[C@H](N2Cc3cc(N4CCN(CC5CCN(c6ccc([C@@H]7c8ccc(O)cc8CC[C@@H]7c7ccccc7)cc6)CC5)CC4)ccc3C2=O)C(=O)N1 [ARV-471, vepdegestrant] | basic and Base | predominantly neutral | 3.39 | 0.07 | – | – | 4.73 | Oral | – | > 30 | up to 97% | showed clinical activity | well tolerated | – | –
Cc1ncsc1-c1ccc([C@H](C)NC(=O)[C@@H]2C[C@@H](O)CN2C(=O)[C@@H](NC(=O)CCCCCC(=O)N2CCN(CC[C@H](CSc3ccccc3)Nc3ccc(S(=O)(=O)NC(=O)c4ccc(N5CCN(CC6=C(c7ccc(Cl)cc7)CCC(C)(C)C6)CC5)cc4)cc3S(=O)(=O)C(F)(F)F)CC2)C(C)(C)C)cc1 [DT2216] | ampholyte | – | > 4 | – | – | – | > 6 | Intravenous | – | – | – | – | – | < 0.03 | selectively induced degradation of Bcl-xL
C=C[C@@H]1C[C@]1(NC(=O)[C@@H]1C[C@@H](Oc2ncc(OC)c3ccc(Cl)cc23)CN1C(=O)[C@@H](NC(=O)OC(C)(C)C)C(C)(C)C)C(=O)NS(=O)(=O)C1CC1 [asunaprevir] | acidic | – | – | – | – | – | – | – | – | – | – | – | – | – | –

Second part, led by results:

A/B: acid or base profile [1] | Ionization state at pH 7 [1] | log kw^IAM [2] | Δ log kw^IAM [2] | Chamelogk [3] | chromatographic logD [7] | chromatographic logD [7, 10] | SMILES | Absorption [4] | Tumour growth in vivo [5] | Oral bioavailability F [6] [%] | ER degradation (ER (estrogen receptor)) | Clinical activity (advanced breast cancer; advanced breast cancer patients) | Tolerability (advanced breast cancer; all doses orally administered) | Oral bioavailability F [8] [%] | Degradation of Bcl-xL [9]
basic and Base | predominantly neutral | 3.20 | 0.33 | 0.99 | 4.25 | – | N#Cc1ccc(O[C@H]2CC[C@H](NC(=O)c3ccc(N4CCC(CN5CCN(c6cc7c(cc6F)C(=O)N(C6CCC(=O)NC6=O)C7=O)CC5)CC4)nn3)CC2)cc1Cl (stereo partly drawn) [ARV-110, bavdegalutamide] | Oral | significantly inhibited the growth | > 30 | – | – | – | – | –
nonionizable | – | – | – | – | – | – | Cc1sc2c(c1C)C(c1ccc(Cl)cc1)=N[C@@H](CC(=O)Nc1ccc(OCCOCCOCCOCCNc3cccc4c3C(=O)N(C3CCC(=O)NC3=O)C4=O)cc1)c1nnc(C)n1-2 (stereo partly drawn) [ARV-825] | – | – | – | – | – | – | – | –
